According to ChEMBL document CHEMBL1201862, “PubChem BioAssay data set” (2004):
Active and inactive are the calls of the source.

Experiments:
[1] = target: T1, Kappa-type opioid receptor (Homo sapiens, UniProt P41145); assay: SAR analysis of Antagonists of the Kappa Opioid Receptor (KOR) using an Image-Based Assay - Set 4. [Related pubchem assays (depositor defined):AID1777, AID1785]; format: functional
[2] = target: Delta-type opioid receptor (Homo sapiens, UniProt P41143); assay: SAR Analysis of Antagonists of the DOR Receptor using an Image-Based Assay - Set 3. [Related pubchem assays (depositor defined):AID1777, AID1785]; format: functional;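 further: U2OS cells expressing DOR1 and beta-arrestin GFP stimulated with 100 nM SNC80; imaging of GFP-tagged beta-arrestin moving into spots after receptor activation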
[3] = target: T1, Kappa-type opioid receptor; assay: SAR analysis of small molecule antagonists of the kappa opioid receptor via a luminescent beta-arrestin assay - Set 4. [Related pubchem assays (depositor defined):AID1777, AID1778, AID1785, AID1786, AID1966, AID2133, AID2136, AID2285]; format: functional
[4] = target: T1, Kappa-type opioid receptor; assay: SAR analysis of small molecule antagonists of the kappa opioid receptor via a luminescent beta-arrestin assay - Set 6. [Related pubchem assays (depositor defined):AID1777, AID1778, AID1785, AID1786, AID1966, AID2133, AID2136, AID2285]; format: functional
Mu-type opioid receptor = Mu-type opioid receptor (Homo sapiens, UniProt P35372); assay: SAR Analysis of Antagonists of the MOR Receptor using an Image-Based Assay - Set 3. [Related pubchem assays (depositor defined):AID1777, AID1785, AID1786, AID1966, AID2133, AID2136, AID2284, AID2285, AID2420]; format: functional
[5] = target: T2, Dual specificity protein phosphatase 3 (Homo sapiens, UniProt P51452); assay: SAR VHR1 Fluorescent Assay for In Vitro dose response studies. [Related pubchem assays (depositor defined):AID1654, AID1661, AID1878, AID1992, AID2004, AID2070, AID2085]; format: functional
[6] = target: Serine/threonine-protein phosphatase (Homo sapiens, UniProt Q9BPW0); assay: Counterscreen for inhibitors of PP1: fluorescence-based biochemical high throughput dose response assay to identify inhibitors of Protein Phosphatase 5 (PP5). [Related pubchem assays: 2034 (Summary (PP5 inhibitors)), 1987 (PP5 inhibitors in singlate), 2235 (PP1 inhibitors in singlate)]
[7] = target: T3, Long-chain-fatty-acid--AMP ligase FadD28 (Mycobacterium tuberculosis, UniProt P9WQ59); assay: Fluorescence polarization aasay to screen for inhibitors that compete for the binding of FadD28 to a bisubstrate Measured in Biochemical System Using Plate Reader - 2147-01_Inhibitor_Dose_CherryPick_Activity.; format: functional, Mycobacterium tuberculosis H37Rv
T3 sequence (P9WQ59 whole entry): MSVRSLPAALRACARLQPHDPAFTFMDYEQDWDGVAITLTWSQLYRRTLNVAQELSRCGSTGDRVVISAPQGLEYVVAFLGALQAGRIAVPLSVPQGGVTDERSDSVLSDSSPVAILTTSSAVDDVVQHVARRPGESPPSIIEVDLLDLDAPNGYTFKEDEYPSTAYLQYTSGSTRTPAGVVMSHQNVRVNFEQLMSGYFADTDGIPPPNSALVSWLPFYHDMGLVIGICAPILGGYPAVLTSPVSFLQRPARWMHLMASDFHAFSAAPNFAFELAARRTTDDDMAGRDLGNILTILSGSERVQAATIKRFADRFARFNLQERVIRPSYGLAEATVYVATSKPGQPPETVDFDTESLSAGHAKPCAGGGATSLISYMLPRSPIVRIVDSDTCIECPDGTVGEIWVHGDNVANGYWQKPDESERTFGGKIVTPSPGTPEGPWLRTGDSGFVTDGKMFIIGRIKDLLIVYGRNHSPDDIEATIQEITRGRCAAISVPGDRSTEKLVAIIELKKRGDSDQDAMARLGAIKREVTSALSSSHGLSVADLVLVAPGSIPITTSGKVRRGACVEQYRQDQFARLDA

[8] = target: T4, Dual specificity protein phosphatase 6 (Rattus norvegicus, UniProt Q64346); format: functional;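 further: confirmatory in vitro dose-response testing of MKP-3 inhibition; recombinant His-tagged MKP-3 made in E. coli BL21 with OMFP substrate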
T4 sequence (Q64346 whole entry): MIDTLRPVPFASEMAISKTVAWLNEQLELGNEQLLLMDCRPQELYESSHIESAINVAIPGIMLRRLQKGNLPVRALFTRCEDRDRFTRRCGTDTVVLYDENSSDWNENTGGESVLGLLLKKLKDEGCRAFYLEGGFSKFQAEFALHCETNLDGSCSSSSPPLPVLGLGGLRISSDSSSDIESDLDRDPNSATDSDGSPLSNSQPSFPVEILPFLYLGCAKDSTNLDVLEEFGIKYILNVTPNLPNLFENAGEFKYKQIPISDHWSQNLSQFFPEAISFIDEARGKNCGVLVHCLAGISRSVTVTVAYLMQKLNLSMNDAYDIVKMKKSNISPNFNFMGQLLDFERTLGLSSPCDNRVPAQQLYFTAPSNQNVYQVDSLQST

[9] = target: Serine/threonine-protein phosphatase PP1-alpha catalytic subunit (Homo sapiens, UniProt P62136); assay: PP1 phosphatase inhibitors, dose response, biochemical, fluorescence (AID 2403);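 further: phosphatase turnover of OMFP into fluorescent 3-O-methylfluorescein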
[10] = target: T5, Voltage-gated N-type calcium channel alpha-1B subunit/Amyloid beta A4 precursor protein-binding family A member 1 (Homo sapiens, UniProt Q00975+Q02410); format: protein assay
[11] = target: T5, Voltage-gated N-type calcium channel alpha-1B subunit/Amyloid beta A4 precursor protein-binding family A member 1; format: protein assay; remark: listed apart in the source
[12] = target: T6, Tyrosine-protein phosphatase non-receptor type 22 (Homo sapiens, UniProt Q9Y2R2); assay: LYP (PTPN22) phosphatase inhibitor potency, SAR follow-up, biochemical, pCAP fluorogenic substrate, fluorescence, set 3 (AID 449727); format: functional
T6 sequence (Q9Y2R2 whole entry): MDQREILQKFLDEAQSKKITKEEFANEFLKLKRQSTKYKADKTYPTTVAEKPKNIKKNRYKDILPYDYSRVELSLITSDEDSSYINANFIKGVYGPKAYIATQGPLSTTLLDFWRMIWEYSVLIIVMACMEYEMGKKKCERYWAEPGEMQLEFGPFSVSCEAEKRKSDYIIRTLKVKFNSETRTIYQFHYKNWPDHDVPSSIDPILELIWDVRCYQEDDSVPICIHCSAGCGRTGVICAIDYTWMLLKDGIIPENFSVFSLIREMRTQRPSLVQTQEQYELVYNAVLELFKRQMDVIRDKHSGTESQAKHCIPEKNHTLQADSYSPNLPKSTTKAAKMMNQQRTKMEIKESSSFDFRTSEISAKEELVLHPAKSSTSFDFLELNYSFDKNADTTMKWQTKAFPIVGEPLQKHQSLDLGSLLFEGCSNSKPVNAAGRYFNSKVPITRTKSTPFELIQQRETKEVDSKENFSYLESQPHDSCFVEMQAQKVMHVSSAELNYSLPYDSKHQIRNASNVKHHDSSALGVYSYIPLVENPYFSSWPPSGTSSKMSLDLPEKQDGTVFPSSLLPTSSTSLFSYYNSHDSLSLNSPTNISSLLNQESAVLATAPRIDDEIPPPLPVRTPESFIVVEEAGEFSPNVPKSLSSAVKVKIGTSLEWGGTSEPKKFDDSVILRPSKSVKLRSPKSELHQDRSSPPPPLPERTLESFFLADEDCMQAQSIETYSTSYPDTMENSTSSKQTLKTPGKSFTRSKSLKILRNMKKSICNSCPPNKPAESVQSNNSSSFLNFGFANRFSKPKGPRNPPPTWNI

[13] = target: T7, Tyrosine-protein phosphatase non-receptor type 7 (Homo sapiens, UniProt P35236); assay: redox-dependent HePTP inhibition, mechanism study, biochemical, fluorescence (AID 2068); format: functional
T7 sequence (P35236 whole entry): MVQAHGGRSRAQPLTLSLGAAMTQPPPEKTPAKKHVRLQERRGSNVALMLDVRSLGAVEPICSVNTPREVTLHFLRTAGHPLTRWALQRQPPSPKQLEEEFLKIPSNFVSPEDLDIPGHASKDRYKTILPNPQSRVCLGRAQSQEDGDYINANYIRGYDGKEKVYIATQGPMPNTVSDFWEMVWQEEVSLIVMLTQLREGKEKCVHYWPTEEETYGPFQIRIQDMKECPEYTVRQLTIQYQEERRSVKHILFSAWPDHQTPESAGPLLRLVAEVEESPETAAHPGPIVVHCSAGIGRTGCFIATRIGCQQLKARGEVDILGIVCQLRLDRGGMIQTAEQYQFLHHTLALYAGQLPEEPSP

[14] = target: T6, Tyrosine-protein phosphatase non-receptor type 22; assay: SAR LYP1 Fluorescent Assay using OMFP substrate for In Vitro dose response studies - Set 3. [Related pubchem assays (depositor defined):AID1779, AID1784, AID2140, AID2686]; format: functional
[15] = target: T2, Dual specificity protein phosphatase 3; assay: VHR1 phosphatase inhibitors, primary screen, biochemical, absorbance, uHTS (AID 1654)
[16] = target: T2, Dual specificity protein phosphatase 3; assay: SAR VHR1 absorbance Assay for In Vitro dose response studies. [Related pubchem assays (depositor defined):AID1654, AID1661, AID1878, AID1992, AID2004]
[17] = target: T2, Dual specificity protein phosphatase 3; assay: VHR1 phosphatase inhibitors, biochemical (AID 1878)
[18] = target: T4, Dual specificity protein phosphatase 6; assay: MKP-3 phosphatase inhibitors, primary screen, biochemical, rat enzyme, in vitro (AID 425)
[19] = target: Tyrosine-protein phosphatase non-receptor type 12 (Homo sapiens, UniProt Q05209); assay: SAR Selectivity Analysis of small molecule inhibitors of PEST using pCAP in a fluorescence assay. [Related pubchem assays (depositor defined):AID1779, AID1784, AID2135]; format: functional
Trypsin = Trypsin (Sus scrofa, UniProt P00761); assay: porcine trypsin inhibitors, dose response, selectivity assay for Rce1 protease inhibitor project, biochemical, quenched peptide fluorescence, cherry-pick (AID 488789)
CAAX prenyl protease 2 = CAAX prenyl protease 2 (Saccharomyces cerevisiae S288c, UniProt Q03530); format: biochemical
[20] = inhibitors of firefly luciferase expression or activity, dose response, H4 neuroglioma cells, luminescence (AID 1990); format: functional, cell-based
BJ [21] = assay: cytotoxicity toward BJ-TERT fibroblasts, dose response, cell-based, RAS-independent, luminescence (AID 1933); format: functional; conditions: Homo sapiens
BJ [22] = assay: cytotoxicity toward BJ-TERT-LT-ST fibroblasts, dose response, cell-based, RAS-independent, luminescence (AID 1935); format: functional; conditions: Homo sapiens;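 further: BJ fibroblasts immortalized with TERT plus LT and ST oncogenes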
[23] = cytotoxicity toward DRD oncogenic fibroblasts, dose response, cell-based, non-viral oncogenic, luminescence (AID 1934); format: functional; conditions: Homo sapiens
BJ [24] = assay: cells; format: functional, cell-based; conditions: Homo sapiens
cells = format: functional, cell-based
[25] = inhibitors of SNCA 5'UTR-driven reporter translation, confirmation, H4 neuroglioma cells, luminescence (AID 1988); format: functional, cell-based
Prothrombin = Prothrombin (Homo sapiens, UniProt P00734); assay: Thrombin 1536 HTS Dose Response Confirmation. [Related pubchem assays: 1046 (Thrombin 1536 HTS; hits were confirmed in this assay)]; format: functional
[26] = inhibitors of SNCA 5'UTR-driven translation, confirmation, luminescence, H4 neuroglioblastoma cells, dose confirmation (AID 2454); format: functional, cell-based;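 further: H4 neuroglioblastoma cells carrying an alpha-synuclein 5'UTR luciferase reporter; potency for inhibition of the luciferase signal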
[27] = luciferase reporter signal reduction – luminescence, H4-C neuroglioblastoma cells, dose response (AID 2458); format: functional, cell-based;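 further: H4 neuroglioblastoma cells stably carrying a luciferase reporter gene fusion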
[28] = Luminescence Cell-Based Dose Response HTS to Identify Inhibitors of 5'UTR Stem-Loop Driven Prion Protein mRNA Translation in H4 Neuroglioblastoma Cells. [Related pubchem assays: 1827 (Project Summary), 1813 (Primary HTS)]; format: functional
J774.A1 = assay: Confirmation of image-based Screening Assay for Inhibitors of Phagocytosis. [Related pubchem assays (depositor defined):AID1029, AID1643]; format: functional, cell-based; conditions: Mus musculus

T1 sequence (P41145 whole entry): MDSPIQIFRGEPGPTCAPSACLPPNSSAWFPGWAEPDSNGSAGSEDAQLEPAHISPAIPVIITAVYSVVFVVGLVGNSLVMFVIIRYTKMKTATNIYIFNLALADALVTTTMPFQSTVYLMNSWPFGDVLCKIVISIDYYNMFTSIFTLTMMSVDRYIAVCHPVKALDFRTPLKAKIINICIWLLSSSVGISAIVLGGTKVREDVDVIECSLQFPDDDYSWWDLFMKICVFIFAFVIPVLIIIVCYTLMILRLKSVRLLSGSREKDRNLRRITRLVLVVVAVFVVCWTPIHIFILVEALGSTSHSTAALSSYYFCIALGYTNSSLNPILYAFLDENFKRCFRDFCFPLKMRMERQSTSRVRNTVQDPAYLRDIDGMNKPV
T2 sequence (P51452 whole entry): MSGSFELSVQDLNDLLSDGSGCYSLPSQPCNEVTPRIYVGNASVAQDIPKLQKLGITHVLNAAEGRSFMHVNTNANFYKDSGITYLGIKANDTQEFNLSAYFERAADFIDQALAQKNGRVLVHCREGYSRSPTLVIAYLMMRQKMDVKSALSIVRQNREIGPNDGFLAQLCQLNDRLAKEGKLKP
T5 sequence (Q00975 whole entry): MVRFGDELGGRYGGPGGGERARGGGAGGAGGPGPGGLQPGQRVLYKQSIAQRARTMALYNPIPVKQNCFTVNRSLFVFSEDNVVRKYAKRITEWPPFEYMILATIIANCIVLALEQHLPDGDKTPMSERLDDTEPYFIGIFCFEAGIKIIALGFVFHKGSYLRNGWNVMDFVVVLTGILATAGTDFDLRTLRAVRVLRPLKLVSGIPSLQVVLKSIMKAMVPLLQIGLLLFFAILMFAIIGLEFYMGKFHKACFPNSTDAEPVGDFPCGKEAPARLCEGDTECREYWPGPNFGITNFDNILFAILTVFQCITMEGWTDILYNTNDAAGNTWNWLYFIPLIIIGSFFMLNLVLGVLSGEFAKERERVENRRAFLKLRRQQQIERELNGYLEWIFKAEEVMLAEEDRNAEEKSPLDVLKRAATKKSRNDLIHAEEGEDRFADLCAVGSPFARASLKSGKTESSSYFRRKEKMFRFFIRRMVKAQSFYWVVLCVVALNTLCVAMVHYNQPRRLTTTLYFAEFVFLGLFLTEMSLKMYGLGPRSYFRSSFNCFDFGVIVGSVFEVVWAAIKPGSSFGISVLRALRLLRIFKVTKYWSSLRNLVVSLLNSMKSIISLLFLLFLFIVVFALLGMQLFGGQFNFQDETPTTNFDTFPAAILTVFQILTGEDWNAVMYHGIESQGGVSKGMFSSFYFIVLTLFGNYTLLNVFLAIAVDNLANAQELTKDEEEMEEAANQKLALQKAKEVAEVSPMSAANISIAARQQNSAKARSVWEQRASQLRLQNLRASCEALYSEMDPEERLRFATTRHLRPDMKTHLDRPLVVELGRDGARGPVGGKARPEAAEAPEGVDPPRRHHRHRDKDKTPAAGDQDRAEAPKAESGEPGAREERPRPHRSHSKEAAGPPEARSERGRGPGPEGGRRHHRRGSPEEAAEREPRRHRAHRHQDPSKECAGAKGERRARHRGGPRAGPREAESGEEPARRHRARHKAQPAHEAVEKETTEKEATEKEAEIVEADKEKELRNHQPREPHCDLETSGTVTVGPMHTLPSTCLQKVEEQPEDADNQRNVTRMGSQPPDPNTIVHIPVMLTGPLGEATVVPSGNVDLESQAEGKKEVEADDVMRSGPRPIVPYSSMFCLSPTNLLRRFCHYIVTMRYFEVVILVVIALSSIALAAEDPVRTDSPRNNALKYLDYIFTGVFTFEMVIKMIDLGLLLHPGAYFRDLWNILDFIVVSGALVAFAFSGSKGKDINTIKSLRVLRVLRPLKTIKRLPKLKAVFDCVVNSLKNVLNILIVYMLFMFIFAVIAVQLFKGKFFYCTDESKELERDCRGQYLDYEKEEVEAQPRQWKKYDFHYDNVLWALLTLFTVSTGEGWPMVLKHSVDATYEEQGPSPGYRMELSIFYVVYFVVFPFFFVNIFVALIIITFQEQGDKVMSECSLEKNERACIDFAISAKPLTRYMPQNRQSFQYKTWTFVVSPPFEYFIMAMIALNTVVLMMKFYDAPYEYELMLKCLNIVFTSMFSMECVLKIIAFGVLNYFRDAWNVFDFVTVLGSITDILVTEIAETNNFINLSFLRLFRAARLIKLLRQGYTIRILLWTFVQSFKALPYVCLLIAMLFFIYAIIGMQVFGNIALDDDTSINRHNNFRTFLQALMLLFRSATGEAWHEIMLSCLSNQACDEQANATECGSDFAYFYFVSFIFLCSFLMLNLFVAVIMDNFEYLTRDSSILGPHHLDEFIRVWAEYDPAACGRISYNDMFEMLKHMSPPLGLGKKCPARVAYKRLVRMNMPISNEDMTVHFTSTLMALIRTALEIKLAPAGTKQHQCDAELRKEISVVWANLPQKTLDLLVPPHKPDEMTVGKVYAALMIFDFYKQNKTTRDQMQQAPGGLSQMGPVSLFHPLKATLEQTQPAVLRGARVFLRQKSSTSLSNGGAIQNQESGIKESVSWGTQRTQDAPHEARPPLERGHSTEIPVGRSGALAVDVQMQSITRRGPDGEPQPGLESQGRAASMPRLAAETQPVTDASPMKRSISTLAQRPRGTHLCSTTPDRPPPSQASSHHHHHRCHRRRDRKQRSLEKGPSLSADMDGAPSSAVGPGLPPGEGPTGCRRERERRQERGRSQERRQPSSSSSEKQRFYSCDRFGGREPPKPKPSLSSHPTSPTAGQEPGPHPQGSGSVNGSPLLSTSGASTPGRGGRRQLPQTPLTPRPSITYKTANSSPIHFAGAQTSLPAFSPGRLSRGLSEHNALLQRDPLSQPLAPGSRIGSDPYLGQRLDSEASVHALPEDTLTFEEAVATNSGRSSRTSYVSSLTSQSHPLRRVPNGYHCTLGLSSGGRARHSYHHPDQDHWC
T5 sequence (Q02410 whole entry): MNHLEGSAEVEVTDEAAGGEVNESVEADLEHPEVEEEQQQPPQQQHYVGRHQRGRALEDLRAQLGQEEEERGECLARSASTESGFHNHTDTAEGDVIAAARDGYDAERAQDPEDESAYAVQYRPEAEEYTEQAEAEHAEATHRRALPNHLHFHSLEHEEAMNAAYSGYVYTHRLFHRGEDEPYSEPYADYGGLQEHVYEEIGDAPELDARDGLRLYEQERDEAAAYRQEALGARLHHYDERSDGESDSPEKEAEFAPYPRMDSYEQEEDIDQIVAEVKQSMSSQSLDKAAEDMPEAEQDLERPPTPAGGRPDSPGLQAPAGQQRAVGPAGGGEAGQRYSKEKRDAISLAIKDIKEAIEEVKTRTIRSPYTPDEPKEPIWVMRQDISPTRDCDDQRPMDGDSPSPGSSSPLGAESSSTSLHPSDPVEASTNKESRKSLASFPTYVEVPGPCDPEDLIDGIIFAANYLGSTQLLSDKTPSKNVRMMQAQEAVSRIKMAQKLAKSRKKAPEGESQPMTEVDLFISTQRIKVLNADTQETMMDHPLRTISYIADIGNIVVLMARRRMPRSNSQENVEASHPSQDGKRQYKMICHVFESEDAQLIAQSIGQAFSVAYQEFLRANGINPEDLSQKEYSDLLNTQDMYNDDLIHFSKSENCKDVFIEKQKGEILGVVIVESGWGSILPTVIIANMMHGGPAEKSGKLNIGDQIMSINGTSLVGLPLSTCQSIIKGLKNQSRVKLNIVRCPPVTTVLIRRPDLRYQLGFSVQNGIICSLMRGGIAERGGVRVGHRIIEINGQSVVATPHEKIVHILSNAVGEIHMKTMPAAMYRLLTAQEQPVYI
Chain of Mu-type opioid receptor (P35372 whole entry): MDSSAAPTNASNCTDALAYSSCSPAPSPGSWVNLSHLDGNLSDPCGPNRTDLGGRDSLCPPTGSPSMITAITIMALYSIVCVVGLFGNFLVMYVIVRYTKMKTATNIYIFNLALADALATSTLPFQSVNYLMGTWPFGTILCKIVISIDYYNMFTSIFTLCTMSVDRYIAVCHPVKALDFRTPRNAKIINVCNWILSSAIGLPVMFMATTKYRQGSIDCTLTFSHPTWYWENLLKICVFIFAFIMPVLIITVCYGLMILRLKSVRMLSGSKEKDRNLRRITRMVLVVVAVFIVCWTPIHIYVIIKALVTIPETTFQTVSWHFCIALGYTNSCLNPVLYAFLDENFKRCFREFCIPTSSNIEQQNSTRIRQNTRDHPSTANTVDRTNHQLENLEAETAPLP
Chain of Trypsin (P00761 whole entry): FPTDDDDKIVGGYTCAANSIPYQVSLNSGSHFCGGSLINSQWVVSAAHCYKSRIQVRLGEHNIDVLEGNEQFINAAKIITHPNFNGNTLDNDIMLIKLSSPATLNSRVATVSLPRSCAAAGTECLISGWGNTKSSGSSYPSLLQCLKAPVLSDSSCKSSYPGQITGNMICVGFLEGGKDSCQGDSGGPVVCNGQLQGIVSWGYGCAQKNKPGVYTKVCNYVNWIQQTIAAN
Chain of Delta-type opioid receptor (P41143 whole entry): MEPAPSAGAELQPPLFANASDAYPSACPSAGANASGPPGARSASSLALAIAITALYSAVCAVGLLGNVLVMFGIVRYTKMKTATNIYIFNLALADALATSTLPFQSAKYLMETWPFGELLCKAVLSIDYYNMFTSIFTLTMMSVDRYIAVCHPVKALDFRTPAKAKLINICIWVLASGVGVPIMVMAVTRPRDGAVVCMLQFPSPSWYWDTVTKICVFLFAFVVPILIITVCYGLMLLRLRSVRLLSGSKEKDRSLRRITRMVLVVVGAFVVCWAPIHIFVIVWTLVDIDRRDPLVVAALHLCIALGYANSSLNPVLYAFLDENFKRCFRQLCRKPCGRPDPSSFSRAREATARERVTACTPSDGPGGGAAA

Cc1ccc(S(=O)(=O)NCc2ccc(C(=O)NCCN3CCc4ccccc4C3)cc2)cc1
IC50 [1]: 5.98 µM (active)
IC50 [2]: > 32 µM (inactive)
IC50 [3]: > 20 µM (inactive)
IC50 [4]: > 20 µM (inactive)
IC50 (Mu-type opioid receptor): > 32 µM (inactive)

COc1cc(/C=C2\SC(=O)N(CC(=O)Nc3ccc(C)cc3)C2=O)cc(Cl)c1OCC(=O)O
IC50 [5]: 1.18 µM (active)
IC50 [6]: > 67 µM (not active)
AC50 [7]: > 100 µM (inactive)
IC50 [8]: 6.66 µM (active)
IC50 [9]: 6.24 µM (active)
IC50 [10]: > 50 µM (inactive)
IC50 [11]: 6.91 µM (active)
IC50 [12]: 803 nM (active)
IC50 [13]: 256 nM (active)
IC50 [14]: 1.51 µM (active)
IC50 [15]: 5.01 µM (active)
IC50 [16]: 2.4 µM (active)
IC50 [17]: < 1.23 µM (inactive)
IC50 [18]: 75.2 µM (active)
IC50 [19]: 313 nM (active)

N#Cc1nc(-c2ccco2)oc1N1CCN(C(c2ccccc2)c2ccccc2)CC1
AC50 (Trypsin): 41.5 µM (active)
AC50 (CAAX prenyl protease 2): 990 nM (active)

O=C(c1ccco1)N1CCN(C(=O)N2c3ccccc3Sc3ccccc32)CC1
EC50 [20]: < 100 nM (active)
EC50 (BJ [21]): 8.08 µM (inconclusive)
EC50 (BJ [22]): 1.41 µM (inconclusive)
EC50 [23]: 6.59 µM (inconclusive)
EC50 (BJ [24]): 13.2 µM (inconclusive)
EC50 (cells): 291 nM (active)
EC50 [25]: < 100 nM (active)
IC50 (Prothrombin): > 50 µM (not active)
EC50 [26]: 381 nM (active)
EC50 [27]: 295 nM (active)
EC50 [28]: 136 nM (active)
IC50 (J774.A1): < 50 nM (inactive)
